Assays:
Type in all cases: cell-based
human P2X7 channel = molecular target: T1, human P2X7 channel (Homo sapiens, UniProt Q99572); experiment: human P2X7 channel assay by automated patch-clamp (QPatch 16X); conditions: HEK-293 cells expressing P2X7; current evoked by 100 microM BzATP; whole-cell, held at -80 mV; read-out: human Q-Patch (activity range)
T1 construct: expressed in transfected cells; host or cells: HEK-293
T1 sequence (Q99572 1-595): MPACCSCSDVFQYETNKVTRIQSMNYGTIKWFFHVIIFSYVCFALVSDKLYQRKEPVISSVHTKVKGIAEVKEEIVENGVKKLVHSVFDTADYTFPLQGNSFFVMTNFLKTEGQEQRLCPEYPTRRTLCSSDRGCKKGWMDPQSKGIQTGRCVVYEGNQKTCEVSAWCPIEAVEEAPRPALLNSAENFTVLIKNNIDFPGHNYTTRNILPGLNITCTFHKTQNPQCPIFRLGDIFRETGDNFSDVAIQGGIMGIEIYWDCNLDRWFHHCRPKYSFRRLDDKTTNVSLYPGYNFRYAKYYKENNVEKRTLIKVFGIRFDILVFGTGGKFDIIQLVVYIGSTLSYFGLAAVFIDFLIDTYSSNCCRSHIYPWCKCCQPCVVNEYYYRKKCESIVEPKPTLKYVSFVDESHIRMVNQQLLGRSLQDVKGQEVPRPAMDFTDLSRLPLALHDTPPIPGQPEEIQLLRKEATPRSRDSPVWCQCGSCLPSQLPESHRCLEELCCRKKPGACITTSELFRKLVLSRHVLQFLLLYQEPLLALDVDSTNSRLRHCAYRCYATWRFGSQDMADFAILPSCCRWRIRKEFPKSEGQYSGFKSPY
Description: In order to directly monitor the block of P2X7 channel, an electrophysiological assay was developed and implemented on the QPatchl6X automated electrophysiology instrument.
HEK-293 cells expressing the P2X7 channels were cultured in modified EMEM.
72 hours before experiment, 5 million cells were seeded onto T225 flasks. Just before the experiment cells were washed twice, detached from the flask with trypsin-EDTA, re-suspended in the suspension solution and placed on the QPatch 16x.
The compounds (20 mM in a 100% DMSO) stored at −20° C. were prepared the day of the experiment (a first dilution 1:20 in 100% DMSO to prepare a 1 mM stock solution, then a 1 microM solution in external solution+a serial dilution 1:10).
The standard whole-cell voltage clamp experiments were performed at room temperature. From these experiments the multihole technology was used and the data were sampled at 2 KHz.
The intracellular solution contained (mM) 135 CsF, 10 NaCl, 1 EGTA, 10 HEPES, (pH 7.2 with CsOH) whereas the extracellular contained (mM) 145 NaCl, 4 KCl, 0.5 MgCl2, 1 CaCl2, 10 HEPES, 10 Glc (pH 7.4 with NaOH).
After establishment of the seal and the passage in the whole cell configuration, the cells were held at −80 mV. The P2XR7 current was evoked by applying 100 microM of BzATP alone (4 times) and then in the presence increasing concentrations of the compound under investigation (1, 10, 100 and 1000 nM).
The pre-incubation periods 5 to 8 contain increasing concentrations of the compound of interest (1, 10, 100 and 1000 nM), as illustrated in FIGURE (application protocol).
The maximal inward current evoked by BzATP in absence or presence of increasing concentrations of the compounds under investigation was measured and normalized. The potential […] effect was measured as % of control and as IC50 determined fitting the dose-response curves data with the following equation:
Here are reported the potency ranges as A, B, C and D, where A is <10 nM; B is 10 nM-100 nM, C is 0.1-1 μM, D is 1-10 μM.

ratP2X7 = molecular target: T2, ratP2X7 (Rattus norvegicus, UniProt Q64663); experiment: P2X7 channel calcium-influx assay (Fluo-8, FLIPR TETRA), rat P2X7; conditions: HEK-293 cells stably transfected with P2X7; Bz-ATP at EC80; low divalent cation buffer; read-out: ratP2X7 (activity range)
T2 construct: expressed in transfected cells; host or cells: HEK-293
T2 sequence (Q64663 1-595): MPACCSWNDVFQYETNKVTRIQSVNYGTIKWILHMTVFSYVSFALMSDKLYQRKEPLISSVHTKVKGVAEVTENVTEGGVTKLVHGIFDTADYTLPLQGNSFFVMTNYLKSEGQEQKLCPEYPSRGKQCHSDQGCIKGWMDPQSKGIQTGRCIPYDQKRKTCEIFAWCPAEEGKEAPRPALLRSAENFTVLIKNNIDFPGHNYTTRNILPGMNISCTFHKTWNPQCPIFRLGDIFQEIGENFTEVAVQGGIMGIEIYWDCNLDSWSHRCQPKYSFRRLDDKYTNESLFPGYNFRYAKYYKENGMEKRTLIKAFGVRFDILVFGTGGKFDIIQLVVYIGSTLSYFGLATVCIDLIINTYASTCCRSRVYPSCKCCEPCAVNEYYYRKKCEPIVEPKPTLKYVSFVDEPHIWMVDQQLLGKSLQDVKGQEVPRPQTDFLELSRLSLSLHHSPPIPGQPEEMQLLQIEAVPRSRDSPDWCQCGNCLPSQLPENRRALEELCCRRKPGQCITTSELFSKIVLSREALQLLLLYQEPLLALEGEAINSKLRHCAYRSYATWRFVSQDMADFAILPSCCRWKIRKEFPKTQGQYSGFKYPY
Description: (§1) Extracellular binding of Bz-ATP to P2X7 receptor opens the channel and allows Ca^2+ influx into the cells. This Ca^2+ entry was measured in HEK-293 cells stably transfected with P2X7 receptor using Screen Quest™ Fluo-8 No Wash Calcium Assay Kit (AAt Bioquest®, cat. 36316). Once inside the cell, the lipophilic blocking groups of Fluo-8 are cleaved by non-specific cell esterases, resulting in a negatively-charged fluorescent dye that stays inside cells. Its fluorescence increases upon binding to calcium. When HEK-293/P2X7 cells are stimulated with Bz-ATP, Ca^2+ enters the cells and the fluorescence of Fluo-8 NW increases. The dye has an absorption spectrum compatible with excitation at 488 nm by argon laser sources and its emission wavelength is in the range of 515-575 nm.
(§2) HEK-293 cells stably transfected with P2X7 receptor were seeded overnight in growth medium at 10,000 to 20,000 cells/well in 384-well plate. 24 hours later, the medium was removed, and the cells were pre-loaded at RT for 1 hour with 20 μL/w of Fluo-8 NW. Then 10 μL/w of test compounds and reference antagonist A438079 at 3×-concentration were injected with the FLIPRTETRA and the kinetic response over a period of five minutes was monitored. A second injection of 15 μL/w of 3× reference activator (Bz-ATP at EC80) was performed with the FLIPR TETRA and the signal of the emitted fluorescence was recorded for additional three minutes. All the experiment was carried out in a Low Divalent Cation Assay Buffer (0.3 mM Ca^2+ and 0 mM Mg^2+). The effect of the test compounds was measured as percent inhibition vs the reference antagonist and IC50 values were calculated accordingly. Here are reported the potency ranges as A, B, C and D, where A is <200 nM; B is 200 nM-1 μM, C is 1-10 μM, D is 10-30 μM.

mouseP2X7 = molecular target: T3, mouseP2X7 (Mus musculus, UniProt Q9Z1M0); experiment: P2X7 channel calcium-influx assay (Fluo-8, FLIPR TETRA), mouse P2X7; conditions: HEK-293 cells stably transfected with P2X7; Bz-ATP at EC80; low divalent cation buffer; read-out: mouseP2X7 (activity range)
T3 construct: expressed in transfected cells; host or cells: HEK-293
T3 sequence (Q9Z1M0 1-595): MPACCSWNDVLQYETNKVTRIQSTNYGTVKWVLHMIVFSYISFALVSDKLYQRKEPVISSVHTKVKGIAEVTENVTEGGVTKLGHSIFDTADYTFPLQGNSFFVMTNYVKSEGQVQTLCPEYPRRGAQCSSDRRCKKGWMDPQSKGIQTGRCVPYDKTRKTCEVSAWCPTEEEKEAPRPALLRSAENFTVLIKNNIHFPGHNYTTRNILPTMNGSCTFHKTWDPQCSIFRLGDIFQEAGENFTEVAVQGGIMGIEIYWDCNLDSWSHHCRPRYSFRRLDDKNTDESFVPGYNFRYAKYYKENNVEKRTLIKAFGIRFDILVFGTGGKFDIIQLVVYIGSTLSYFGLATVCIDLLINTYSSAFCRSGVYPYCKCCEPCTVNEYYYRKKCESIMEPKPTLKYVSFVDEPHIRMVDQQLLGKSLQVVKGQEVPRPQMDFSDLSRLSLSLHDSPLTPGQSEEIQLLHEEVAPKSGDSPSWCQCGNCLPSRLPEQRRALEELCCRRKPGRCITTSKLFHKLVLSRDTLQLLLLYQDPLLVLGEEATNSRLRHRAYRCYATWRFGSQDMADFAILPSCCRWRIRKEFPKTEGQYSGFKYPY
Description: as §1, §2

humanP2X7 = molecular target: T4, humanP2X7 (Homo sapiens, UniProt Q99572); experiment: P2X7 channel calcium-influx assay (Fluo-8, FLIPR TETRA), human P2X7; conditions: HEK-293 cells stably transfected with P2X7; Bz-ATP at EC80; low divalent cation buffer; read-out: humanP2X7 (activity range)
T4 construct: expressed in transfected cells; host or cells: HEK-293
T4 sequence (Q99572 1-595): T1 sequence (Q99572 1-595)
Description: as §1, §2

Structure (SMILES)	IC50 (human P2X7 channel) [nM]	IC50 (ratP2X7) [nM]	IC50 (mouseP2X7) [nM]	IC50 (humanP2X7) [nM]
Cn1nc(Cc2ccc(F)cc2Cl)n(CC2CCCCC2)c1=O [Example 9, 5-(2-chloro-4-fluorobenzyl)-4-(cyclohexylmethyl)-2-methyl-2,4-dihydro-3H-1,2,4-triazol-3-one]	–	< 200	200 to 1000	200 to 1000
Cn1nc(Cc2c(F)cccc2Cl)n(Cc2ccc(F)cc2)c1=O [Example 1, 5-(2-chloro-6-fluorobenzyl)-4-(4-fluorobenzyl)-2-methyl-2,4-dihydro-3H-1,2,4-triazol-3-one]	–	200 to 1000	1000 to 10000	1000 to 10000
Cn1nc(Cc2ccc(F)cc2Cl)n(Cc2ccc(F)cc2)c1=O [Example 8, 5-(2-chloro-4-fluorobenzyl)-4-(4-fluorobenzyl)-2-methyl-2,4-dihydro-3H-1,2,4-triazol-3-one]	–	1000 to 10000	1000 to 10000	1000 to 10000
Cn1nc(CC2CCC(F)(F)CC2)n(Cc2c(F)cccc2Cl)c1=O [Example 71, 4-[(2-chloro-6-fluorophenyl)methyl]-5-[(4,4-difluorocyclohexyl)methyl]-2-methyl-2,4-dihydro-3H-1,2,4-triazol-3-one]	–	200 to 1000	1000 to 10000	200 to 1000
O=c1n(CC(F)(F)F)nc(Cc2ccccc2Cl)n1CC1CCCCCC1 [Example 54, 5-[(2-chlorophenyl)methyl]-4-(cycloheptylmethyl)-2-(2,2,2-trifluoroethyl)-2,4-dihydro-3H-1,2,4-triazol-3-one]	–	< 200	200 to 1000	200 to 1000
Cn1nc(Cc2c(F)cccc2Cl)n(CC2CCC(C(F)(F)F)CC2)c1=O (centres unmarked) [Example 7, 5-(2-chloro-6-fluorobenzyl)-2-methyl-4-((4-(trifluoromethyl)cyclohexyl)methyl)-2,4-dihydro-3H-1,2,4-triazol-3-one]	–	< 200	200 to 1000	< 200
Cn1nc(Cc2c(F)cccc2Cl)n(CC2CCC(F)CC2)c1=O (centres unmarked) [Example 6, 5-(2-chloro-6-fluorobenzyl)-4-((4-fluorocyclohexyl)methyl)-2-methyl-2,4-dihydro-3H-1,2,4-triazol-3-one]	–	< 200	200 to 1000	200 to 1000

Now from value to compound:

IC50 (human P2X7 channel) [nM]	IC50 (ratP2X7) [nM]	IC50 (mouseP2X7) [nM]	IC50 (humanP2X7) [nM]	Structure (SMILES)
100 to 1000	< 200	1000 to 10000	200 to 1000	Cn1nc(Cc2ccccc2F)n(CC2CCC3(CC2)CC3)c1=O [Example 47, 5-(2-fluorobenzyl)-2-methyl-4-(spiro[2.5]octan-6-ylmethyl)-2,4-dihydro-3H-1,2,4-triazol-3-one]
1000 to 10000	< 200	1000 to 10000	1000 to 10000	Cn1nc(Cc2ccccc2F)n(CC2CCCCC2(C)C)c1=O (centres unmarked) [Example 32, 4-((2,2-dimethylcyclohexyl)methyl)-5-(2-fluorobenzyl)-2-methyl-2,4-dihydro-3H-1,2,4-triazol-3-one]
–	200 to 1000	1000 to 10000	10000 to 30000	Cn1nc(Cc2ccc(F)cc2Cl)n(CC2CCC(F)(F)C2)c1=O (centres unmarked) [Example 10, 5-(2-chloro-4-fluorobenzyl)-4-((3,3-difluorocyclopentyl)methyl)-2-methyl-2,4-dihydro-3H-1,2,4-triazol-3-one]
–	< 200	200 to 1000	200 to 1000	Cn1nc(CC2CCCCCC2)n(Cc2c(F)cccc2Cl)c1=O [Example 59, 4-[(2-chloro-6-fluorophenyl)methyl]-5-(cycloheptylmethyl)-2-methyl-2,4-dihydro-3H-1,2,4-triazol-3-one]
–	200 to 1000	1000 to 10000	200 to 1000	Cn1nc(Cc2c(F)cccc2Cl)n(CC2CCC(F)(F)C2)c1=O (centres unmarked) [Example 4, 5-(2-chloro-6-fluorobenzyl)-4-((3,3-difluorocyclopentyl)methyl)-2-methyl-2,4-dihydro-3H-1,2,4-triazol-3-one]
–	< 200	200 to 1000	< 200	CCn1nc(Cc2ccccc2Cl)n(CC2CCCCCC2)c1=O [Example 64, 5-[(2-chlorophenyl)methyl]-4-(cycloheptylmethyl)-2-ethyl-2,4-dihydro-3H-1,2,4-triazol-3-one]

Reference: patent US20240368092A1, “2,4-Dihydro-3H-1,2,4-Triazol-3-One P2X7 Antagonists” (Breye Therapeutics ApS, priority 2021, published 2024)
